Measured values taken from US8623414B2, “Compositions comprising a lipid and copolymer of styrene and maleic acid” (Malvren Cosmeceutics Limited, priority 2005, dated 2014).

Assays:
[1] = Example 5 Supplemental: turbidity meter (Nephla) of compositions with active agents over time (Table 12a); type: physicochemical; conditions: SMA 3000P (hydrolysed) 2.5%, lipid 90H 1%, S LPC 0.01%; as to clarity: key: Clear: categorised as being clear if there was no significant visible opacity to the naked eye; Cloudy: categorised as cloudy if there was significant visible disruption to the passage of light
Description: The turbidity meter was calibrated prior to use, with two known standards (0 and 40 FNU).
After the final stage of sample preparation (i.e. adjustment of the pH to physiological) samples were course filtered through Whatman 541 filter paper to remove any gross matter which could interfere with turbidity measurement. Immediately after filtration the first turbidity measurement was taken. Mixtures were stored at 4° C. following the initial measurement, and remeasured at later time points.

[2] = Example 5: compositions of the invention to solubilise exemplary active agents (visual clarity, pH on clearing, clarity at pH 7); conditions: SMA 3000HNa 2.5%, 90H 1%, S LPC 0.01%
Description: A stock emulsion of cosurfactant, membrane forming lipid and active was prepared at double the desired final concentration. Cosurfactant was dissolved in water while heating (approximately 50° C.) and stirring. Lipid was then added, followed by continued stirring and heating until a uniform emulsion is formed. The emulsion was then homogenised for 10 minutes. After re-heating to approximately 50° C. the active component was added slowly under stirring until a uniform emulsion was present. The final emulsion was then homogenised for a further 10 minutes.
Stock solutions were prepared by mixing of the hydrolysed polymer with the appropriate volume of water.
Polymer/lipid mixtures were then prepared by the dropwise addition of the lipid containing emulsion to an equal volume of polymer solution while stirring and heating to approximately 50° C.
The pH of the mixtures was adjusted to determine the critical pH level at which macromolecular assemblies formed, and whether the resulting clear and colourless solution would remain at physiological pH.
Percentage values specified in this experiment refer to the weight of the component in question as a proportion of the total weight of the composition.
Mixtures were visually examined to determine whether the polymer/lipid assemblies had solubilised the active agent in the aqueous medium. The clarity of a mixture was categorised as being clear if there was no significant visible opacity to the naked eye, whereas a mixture was categorised as cloudy if there was significant visible disruption to the passage of light.

For Ceramide IIIB [Cera. IIIB], the Clarity ([1]; active agent 0.1%) was “Clear”, the pH on clearing ([1]; active agent 0.1%) was 8.98 and the “Turbidity at pH 7 (FNU)” value ([1]; active agent 0.1%) was 120.7 FNU.

For Nc1ccc(C(=O)O)cc1 [PABA, 4-Aminobenzoic acid], the Clarity ([1]; active agent 0.1%) was “Clear”, the pH on clearing ([1]; active agent 0.1%) was 8.89 and the “Turbidity at pH 7 (FNU)” value ([1]; active agent 0.1%) was 23.20 FNU.

For CC12CCC(C(=Cc3ccccc3)C1=O)C2(C)C (stereo not shown) [Unisol S-22, 3-Benzylidene camphor], the Clarity ([1]; active agent 0.15%) was “Clear”, the pH on clearing ([1]; active agent 0.15%) was 8.94 and the “Turbidity at pH 7 (FNU)” value ([1]; active agent 0.15%) was 9.46 FNU.

In the case of NC[C@@H]1O[C@H](O[C@H]2[C@@H](O)[C@H](O[C@@H]3[C@@H](O)[C@H](N)C[C@H](N)[C@H]3O[C@H]3O[C@H](CN)[C@@H](O)[C@H](O)[C@H]3N)O[C@@H]2CO)[C@H](N)[C@@H](O)[C@@H]1O.O=S(=O)(O)O [Neo. Sulphate, Neomycin Sulphate, reference compound], the Clarity ([1]; active agent 0.1%) is reported as “Clear”, the pH on clearing ([1]; active agent 0.1%) is reported as 8.82 and the “Turbidity at pH 7 (FNU)” value ([1]; active agent 0.1%) is reported as 42.80 FNU.

With acetyl hexapeptide 3 [Argir] the “Clarity at pH 7” value ([2]; active agent 0.3%) was “Clear”.

For CC(=O)N1CCN(c2ccc(OCC3COC(Cn4ccnc4)(c4ccc(Cl)cc4Cl)O3)cc2)CC1 (stereo not shown) [Keta., Ketaconazole, reference compound], the Clarity ([1]; active agent 0.1%) was “Clear”, the pH on clearing ([1]; active agent 0.1%) was 8.63 and the “Turbidity at pH 7 (FNU)” value ([1]; active agent 0.1%) was 40.75 FNU. For the same compound, the Clarity ([1]; active agent 0.4%) was “Clear”, the pH on clearing ([1]; active agent 0.4%) was 8.83 and the “Turbidity at pH 7 (FNU)” value ([1]; active agent 0.4%) was 74.5 FNU.

In the case of Ceramide IIIA, the Clarity ([2]; active agent 0.1%) is reported as “Clear”, the “Clarity at pH 7” value ([2]; active agent 0.1%) is reported as “Clear” and the pH on clearing ([2]; active agent 0.1%) is reported as 8.89.

In the case of “Erythromycin Sulphate [Erythro., reference compound]”, the Clarity ([1]; active agent 0.1%) is reported as “Clear”, the pH on clearing ([1]; active agent 0.1%) is reported as 8.86 and the “Turbidity at pH 7 (FNU)” value ([1]; active agent 0.1%) is reported as 18.20 FNU.

For C=C1CC[C@H](O)C/C1=C/C=C1\CCC[C@]2(C)[C@@H]([C@H](C)CCCC(C)C)CC[C@@H]12 [Vitamin D3, Cholecalciferol, reference compound], the Clarity ([1]; active agent 0.25%) was “Clear”, the pH on clearing ([1]; active agent 0.25%) was 8.59 and the “Turbidity at pH 7 (FNU)” value ([1]; active agent 0.25%) was 19.78 FNU.

For CC(Cc1ccc(O)c(O)c1)C(C)Cc1ccc(O)c(O)c1 (stereo not shown) [NDGA, Nordihydroguaiaretic acid], the Clarity ([1]; active agent 0.1%) was “Clear”, the pH on clearing ([1]; active agent 0.1%) was 8.98 and the “Turbidity at pH 7 (FNU)” value ([1]; active agent 0.1%) was 27.7 FNU.

With CCCCCCCCCCCCCCCC(=O)OC[C@H](O)[C@H]1OC(=O)C(OC(=O)CCCCCCCCCCCCCCC)=C1O [CP] the Clarity ([2]; active agent 0.1%) was “Clear”, the “Clarity at pH 7” value ([2]; active agent 0.1%) was “Clear” and the pH on clearing ([2]; active agent 0.1%) was 8.89.

For C[C@@H]1[C@H](O)[C@@H](C)/C=C/C=C/CC/C=C/C=C/C=C/C=C/C(O[C@H]2O[C@H](C)[C@@H](O)[C@H](N)[C@@H]2O)CC2O[C@](O)(CC(O)C(O)CCC(O)CC(O)CC(O)CC(=O)O[C@H]1C)CC(O)C2C(=O)O (stereo partly shown) [Nystatin, reference compound], the Clarity ([1]; active agent 0.1%) was “Clear”, the pH on clearing ([1]; active agent 0.1%) was 8.85 and the “Turbidity at pH 7 (FNU)” value ([1]; active agent 0.1%) was 6.93 FNU.

For CC(=O)OCC(=O)[C@@]1(O)CC[C@H]2[C@@H]3CCC4=CC(=O)CC[C@]4(C)[C@H]3C(=O)C[C@@]21C [Cort. A., Cortisone Acetate, reference compound], the Clarity ([1]; active agent 0.25%) was “Clear”, the pH on clearing ([1]; active agent 0.25%) was 8.87 and the “Turbidity at pH 7 (FNU)” value ([1]; active agent 0.25%) was 14.28 FNU.

With CC(C)CCC[C@@H](C)[C@H]1CC[C@H]2[C@@H]3CC=C4C[C@@H](O)CC[C@]4(C)[C@H]3CC[C@]12C [Chol, Cholesterol] the Clarity ([2]; active agent 0.1%) was “Clear”, the “Clarity at pH 7” value ([2]; active agent 0.1%) was “Clear” and the pH on clearing ([2]; active agent 0.1%) was 8.95.

For CC(=O)OCC(=O)[C@@]1(O)[C@H](C)C[C@H]2[C@@H]3CCC4=CC(=O)C=C[C@]4(C)[C@@]3(F)[C@@H](O)C[C@@]21C [DEX A.A., Dexamethasone Acetate Anhydrous, reference compound], the Clarity ([1]; active agent 0.25%) was “Clear”, the pH on clearing ([1]; active agent 0.25%) was 8.84 and the “Turbidity at pH 7 (FNU)” value ([1]; active agent 0.25%) was 10.52 FNU.

With CCC(=O)O[C@]1(C(=O)CCl)[C@@H](C)C[C@H]2[C@@H]3CCC4=CC(=O)C=C[C@]4(C)[C@@]3(F)[C@@H](O)C[C@@]21C [Clo. P, Clobetasol Propionate, reference compound] the Clarity ([1]; active agent 0.1%) was “Clear”, the pH on clearing ([1]; active agent 0.1%) was 8.85 and the “Turbidity at pH 7 (FNU)” value ([1]; active agent 0.1%) was 50 FNU.
